From patent US12077503B2, “Substituted cyclic amides and their use as herbicides” (FMC CORPORATION, priority 2015, dated 2024)

Experiments:
Format in all cases: in vivo
[1] = test system: ivy-leaved morning glory (Ipomoea hederacea); experiment: Test G Post-Emergence Protocol; conditions: Ipomoea, post-emergence, 312 h; for pest or weed control at 15.625 g/ha: 15.625 g ai/ha, evaluated after 13 days (100=total damage to plant; 0=no damage to plant), read-out: Morningglory, Ivy-leaved damage rating; for pest or weed control at 62.5 g/ha: 62.5 g ai/ha, read-out: Morningglory, Ivy-leaved damage rating (100=total damage to plant; 0=no damage to plant); for pest or weed control at 62.5 g/ha / pest or weed control at 250 g/ha: evaluated after 13 days; for pest or weed control at 250 g/ha: 250 g ai/ha, read-out: damage to plant, Morningglory, Ivy-leaved (100=total damage to plant; 0=no damage to plant)
In short: (§1)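 Foliar application was made 8 days after sowing, using an aqueous spray of the active in acetone/water (50:50) with 0.5% Tween 20, at doses of 15.625, 62.5 or 250 g/ha. Injury was assessed 13 days later, where 100 meant the plant was fully damaged.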

[2] = test system: barnyardgrass (Echinochloa crus-galli); experiment: Test G Post-Emergence Protocol; conditions: Echinochloa crus-galli, post-emergence, 312 h; for pest or weed control at 15.625 g/ha: 15.625 g ai/ha, evaluated after 13 days (100=total damage to plant; 0=no damage to plant), read-out: Barnyardgrass damage rating; for pest or weed control at 62.5 g/ha: 62.5 g ai/ha, read-out: Barnyardgrass damage rating (100=total damage to plant; 0=no damage to plant); for pest or weed control at 62.5 g/ha / pest or weed control at 250 g/ha: evaluated after 13 days; for pest or weed control at 250 g/ha: 250 g ai/ha, read-out: damage to plant, Barnyardgrass (100=total damage to plant; 0=no damage to plant)
In short: as §1

[3] = test system: redroot pigweed (Amaranthus retroflexus); experiment: Test G Post-Emergence Protocol; conditions: Amaranthus retroflexus, post-emergence, 312 h; for pest or weed control at 15.625 g/ha: 15.625 g ai/ha, evaluated after 13 days (100=total damage to plant; 0=no damage to plant), read-out: Pigweed, Redroot damage rating; for pest or weed control at 62.5 g/ha: 62.5 g ai/ha, read-out: Pigweed, Redroot damage rating (100=total damage to plant; 0=no damage to plant); for pest or weed control at 62.5 g/ha / pest or weed control at 250 g/ha: evaluated after 13 days; for pest or weed control at 250 g/ha: 250 g ai/ha, read-out: damage to plant, Pigweed, Redroot (100=total damage to plant; 0=no damage to plant)
In short: as §1

[4] = test system: giant foxtail (Setaria faberi); experiment: Test G Post-Emergence Protocol; conditions: Setaria faberi, post-emergence, 312 h; for pest or weed control at 15.625 g/ha: 15.625 g ai/ha, evaluated after 13 days (100=total damage to plant; 0=no damage to plant), read-out: Foxtail, Giant damage rating; for pest or weed control at 62.5 g/ha: 62.5 g ai/ha, read-out: Foxtail, Giant damage rating (100=total damage to plant; 0=no damage to plant); for pest or weed control at 62.5 g/ha / pest or weed control at 250 g/ha: evaluated after 13 days; for pest or weed control at 250 g/ha: 250 g ai/ha, read-out: damage to plant, Foxtail, Giant (100=total damage to plant; 0=no damage to plant)
In short: as §1

corn (Zea mays) [5] = experiment: Test G Post-Emergence Protocol; conditions: Zea mays, post-emergence, 312 h; for plant injury at 15.625 g/ha: 15.625 g ai/ha, evaluated after 13 days (100=total damage to plant; 0=no damage to plant), read-out: Corn damage rating; for plant injury at 62.5 g/ha: 62.5 g ai/ha, read-out: Corn damage rating (100=total damage to plant; 0=no damage to plant); for plant injury at 62.5 g/ha / plant injury at 250 g/ha: evaluated after 13 days; for plant injury at 250 g/ha: 250 g ai/ha, read-out: damage to plant, Corn (100=total damage to plant; 0=no damage to plant)
In short: as §1

[6] = test system: velvetleaf (Abutilon theophrasti); experiment: Test G Post-Emergence Protocol; conditions: Abutilon theophrasti, post-emergence, 312 h; for pest or weed control at 15.625 g/ha: 15.625 g ai/ha, evaluated after 13 days (100=total damage to plant; 0=no damage to plant), read-out: Velvetleaf damage rating; for pest or weed control at 62.5 g/ha: 62.5 g ai/ha, read-out: Velvetleaf damage rating (100=total damage to plant; 0=no damage to plant); for pest or weed control at 62.5 g/ha / pest or weed control at 250 g/ha: evaluated after 13 days; for pest or weed control at 250 g/ha: 250 g ai/ha, read-out: damage to plant, Velvetleaf (100=total damage to plant; 0=no damage to plant)
In short: as §1

[7] = test system: ivy-leaved morning glory (Ipomoea hederacea); experiment: Test G Pre-Emergence Protocol; conditions: Ipomoea, pre-emergence, 312 h, evaluated after 13 days; for pest or weed control at 15.625 g/ha: 15.625 g ai/ha, read-out: Morning-glory, Ivy-leaved damage rating (100=total damage to plant; 0=no damage to plant); for pest or weed control at 62.5 g/ha: 62.5 g ai/ha, 100=total damage to plant, 0=no damage to plant, read-out: plant damage rating, Morningglory, Ivy-leaved; for pest or weed control at 250 g/ha: 250 g ai/ha, read-out: Morningglory, Ivy-leaved damage rating (100=total damage to plant; 0=no damage to plant)
In short: (§2)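 Test compound in 0.5% Tween 20 acetone/water (50:50) was applied at three rates (15.625, 62.5, 250 g/ha) to soil sown one day earlier. After 13 days plants were scored for injury, where 0 means unaffected and 100 means completely damaged.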

[8] = test system: barnyardgrass (Echinochloa crus-galli); experiment: Test G Pre-Emergence Protocol; conditions: Echinochloa crus-galli, pre-emergence, 312 h, evaluated after 13 days; for pest or weed control at 15.625 g/ha: 15.625 g ai/ha, read-out: Barnyard grass damage rating (100=total damage to plant; 0=no damage to plant); for pest or weed control at 62.5 g/ha: 62.5 g ai/ha, 100=total damage to plant, 0=no damage to plant, read-out: plant damage rating, Barnyardgrass; for pest or weed control at 250 g/ha: 250 g ai/ha, read-out: Barnyardgrass damage rating (100=total damage to plant; 0=no damage to plant)
In short: as §2

[9] = test system: redroot pigweed (Amaranthus retroflexus); experiment: Test G Pre-Emergence Protocol; conditions: Amaranthus retroflexus, pre-emergence, 312 h, evaluated after 13 days; for pest or weed control at 15.625 g/ha: 15.625 g ai/ha; for pest or weed control at 15.625 g/ha / pest or weed control at 250 g/ha: read-out: Pigweed, Redroot damage rating (100=total damage to plant; 0=no damage to plant); for pest or weed control at 62.5 g/ha: 62.5 g ai/ha, 100=total damage to plant, 0=no damage to plant, read-out: plant damage rating, Pigweed, Redroot; for pest or weed control at 250 g/ha: 250 g ai/ha
In short: as §2

[10] = test system: giant foxtail (Setaria faberi); experiment: Test G Pre-Emergence Protocol; conditions: Setaria faberi, pre-emergence, 312 h, evaluated after 13 days; for pest or weed control at 15.625 g/ha: 15.625 g ai/ha; for pest or weed control at 15.625 g/ha / pest or weed control at 250 g/ha: read-out: Foxtail, Giant damage rating (100=total damage to plant; 0=no damage to plant); for pest or weed control at 62.5 g/ha: 62.5 g ai/ha, 100=total damage to plant, 0=no damage to plant, read-out: plant damage rating, Foxtail, Giant; for pest or weed control at 250 g/ha: 250 g ai/ha
In short: as §2

corn (Zea mays) [11] = experiment: Test G Pre-Emergence Protocol; conditions: Zea mays, pre-emergence, 312 h, evaluated after 13 days; for plant injury at 15.625 g/ha: 15.625 g ai/ha; for plant injury at 15.625 g/ha / plant injury at 250 g/ha: read-out: Corn damage rating (100=total damage to plant; 0=no damage to plant); for plant injury at 62.5 g/ha: 62.5 g ai/ha, 100=total damage to plant, 0=no damage to plant, read-out: plant damage rating, Corn; for plant injury at 250 g/ha: 250 g ai/ha
In short: as §2

[12] = test system: velvetleaf (Abutilon theophrasti); experiment: Test G Pre-Emergence Protocol; conditions: Abutilon theophrasti, pre-emergence, 312 h, evaluated after 13 days; for pest or weed control at 15.625 g/ha: 15.625 g ai/ha; for pest or weed control at 15.625 g/ha / pest or weed control at 250 g/ha: read-out: Velvetleaf damage rating (100=total damage to plant; 0=no damage to plant); for pest or weed control at 62.5 g/ha: 62.5 g ai/ha, 100=total damage to plant, 0=no damage to plant, read-out: plant damage rating, Velvetleaf; for pest or weed control at 250 g/ha: 250 g ai/ha
In short: as §2

Structure (SMILES) | pest or weed control at 15.625 g/ha [1] | pest or weed control at 62.5 g/ha [1] | pest or weed control at 250 g/ha [1] | pest or weed control at 15.625 g/ha [2] | pest or weed control at 62.5 g/ha [2] | pest or weed control at 250 g/ha [2] | pest or weed control at 15.625 g/ha [3] | pest or weed control at 62.5 g/ha [3] | pest or weed control at 250 g/ha [3] | pest or weed control at 15.625 g/ha [4] | pest or weed control at 62.5 g/ha [4] | pest or weed control at 250 g/ha [4] | plant injury at 15.625 g/ha (corn (Zea mays) [5]) | plant injury at 62.5 g/ha (corn (Zea mays) [5]) | plant injury at 250 g/ha (corn (Zea mays) [5]) | pest or weed control at 15.625 g/ha [6] | pest or weed control at 62.5 g/ha [6] | pest or weed control at 250 g/ha [6] | pest or weed control at 15.625 g/ha [7] | pest or weed control at 62.5 g/ha [7] | other results
Cc1c(Br)cccc1NC(=O)[C@@H]1C(=O)N(C)C[C@H]1c1ccc(C(F)(F)F)cc1 (racemic) [Compound 1619] | 0% | 10% | 30% | 0% | 10% | 70% | 0% | 20% | 50% | 0% | 60% | 70% | 0% | 0% | 10% | 0% | 0% | 0% | 0% | 0% | pest or weed control at 250 g/ha [7]: 10%; pest or weed control at 15.625 g/ha [8]: 0%; pest or weed control at 62.5 g/ha [8]: 0%; pest or weed control at 250 g/ha [8]: 10%; pest or weed control at 15.625 g/ha [9]: 0%; pest or weed control at 62.5 g/ha [9]: 0%; pest or weed control at 250 g/ha [9]: 20%; pest or weed control at 15.625 g/ha [10]: 0%; pest or weed control at 62.5 g/ha [10]: 0%; pest or weed control at 250 g/ha [10]: 70%; plant injury at 15.625 g/ha (corn (Zea mays) [11]): 0%; plant injury at 62.5 g/ha (corn (Zea mays) [11]): 0%; plant injury at 250 g/ha (corn (Zea mays) [11]): 0%; pest or weed control at 15.625 g/ha [12]: 0%; pest or weed control at 62.5 g/ha [12]: 0%; pest or weed control at 250 g/ha [12]: 10%
CN1C[C@@H](c2ccc(C(F)(F)F)cc2)[C@H](C(=O)Nc2[nH]ncc2C#N)C1=O (racemic) [Compound 1551] | 0% | 0% | 0% | 0% | 0% | 0% | 0% | 0% | 0% | 0% | 0% | 0% | 0% | 0% | 10% | 0% | 0% | 0% | 0% | 0% | pest or weed control at 250 g/ha [7]: 0%; pest or weed control at 15.625 g/ha [8]: 0%; pest or weed control at 62.5 g/ha [8]: 0%; pest or weed control at 250 g/ha [8]: 0%; pest or weed control at 15.625 g/ha [9]: 0%; pest or weed control at 62.5 g/ha [9]: 0%; pest or weed control at 250 g/ha [9]: 0%; pest or weed control at 15.625 g/ha [10]: 0%; pest or weed control at 62.5 g/ha [10]: 0%; pest or weed control at 250 g/ha [10]: 0%; plant injury at 15.625 g/ha (corn (Zea mays) [11]): 0%; plant injury at 62.5 g/ha (corn (Zea mays) [11]): 0%; plant injury at 250 g/ha (corn (Zea mays) [11]): 0%; pest or weed control at 15.625 g/ha [12]: 0%; pest or weed control at 62.5 g/ha [12]: 0%; pest or weed control at 250 g/ha [12]: 0%
